Experimental data as given in US20060115815A1 (priority 2002, published 2006).

Each compound was assayed on mutant HIV-1 with I84V/L90M mutations in the protease gene (assay: not given). Conditions: I84V/L90M mutant.
Assay type: cell-based

Compound | I84V/L90M fold change
COc1ccc(S(=O)(=O)N(CC(C)C)CC(O)C(Cc2ccc(OCc3ccccc3)cc2)NC(=O)OC2COC3OCCC23)cc1 (stereo not shown) | — (≦3)
COc1ccc(S(=O)(=O)N(CCN(C)C)CC(O)C(Cc2ccc(OCc3ccccc3)cc2)NC(=O)OC2COC3OCCC23)cc1 (stereo not shown) | — (≦3)
COc1ccc(S(=O)(=O)N(CCN2CCOCC2)CC(O)C(Cc2ccc(OCP(=O)(O)O)cc2)NC(=O)OC2COC3OCCC23)cc1 (stereo not shown) | + (>3 to ≦10)
COc1ccc(S(=O)(=O)N(CCN2CCOCC2)CC(O)C(Cc2ccc(OCP(=O)(OCc3ccccc3)OCc3ccccc3)cc2)NC(=O)OC2COC3OCCC23)cc1 (stereo not shown) | + (>3 to ≦10)
COc1ccc(S(=O)(=O)N(Cc2ccccc2)CC(O)C(Cc2ccccc2)NC(=O)OC2COC3OCCC23)cc1 (stereo not shown) | +++ (>30)
COc1ccc(S(=O)(=O)N(CC(O)C(Cc2ccccc2)NC(=O)OC2COC3OCCC23)CC(C)(C)CO)cc1 (stereo not shown) | +++ (>30)
Cc1cccc(C)c1OCC(=O)NC(Cc1ccc(OCP(=O)(O)O)cc1)C(O)CN(CC(C)C)S(=O)(=O)c1ccc(N)cc1 (stereo not shown) | + (>3 to ≦10)
Cc1ccc(C(=O)NC(Cc2ccc(OCP(=O)(O)O)cc2)C(O)CN(CC(C)C)S(=O)(=O)c2ccc(N)cc2)cc1O (stereo not shown) | + (>3 to ≦10)
CC(C)CN(CC(O)C(Cc1ccc(OCP(=O)(OCc2ccccc2)OCc2ccccc2)cc1)NC(=O)OC1COC2OCCC12)S(=O)(=O)c1ccc(F)cc1 (stereo not shown) | + (>3 to ≦10)
CC(C)CN(CC(O)C(Cc1ccc(OCP(=O)(OCc2ccccc2)OCc2ccccc2)cc1)NC(=O)OC1COC2OCCC12)S(=O)(=O)c1ccc(OC(F)(F)F)cc1 (stereo not shown) | + (>3 to ≦10)
CC(C)CN(CC(O)C(Cc1ccccc1)NC(=O)OC1COC2OCCC12)S(=O)(=O)c1ccc(OCP(=O)(OCc2ccccc2)OCc2ccccc2)cc1 (stereo not shown) | +++ (>30)
CC(C)CN(CC(O)C(Cc1ccccc1)NC(=O)OC1COC2OCCC12)S(=O)(=O)c1cccc(O)c1 (stereo not shown) | + (>3 to ≦10)
CC(C)CN(CC(O)C(Cc1ccccc1)NC(=O)OC1COC2OCCC12)S(=O)(=O)c1cccc(OCP(=O)(O)O)c1 (stereo not shown) | + (>3 to ≦10)
CCOP(=O)(COc1cc(S(=O)(=O)N(CC(C)C)CC(O)C(Cc2ccccc2)NC(=O)OC2COC3OCCC23)ccc1OC)OCC (stereo not shown) | + (>3 to ≦10)
CC(C)CN(C[C@@H](O)[C@H](Cc1ccc(OCP(=O)(Oc2ccccc2)Oc2ccccc2)cc1)NC(=O)OC1CCOC1)S(=O)(=O)c1ccc(N)cc1 (stereo partly shown) [NH2, phenol] | — (≦3)
COc1ccc(S(=O)(=O)N(CC(C)C)C[C@@H](O)[C@H](Cc2ccc(OCP(=O)(O)O)cc2)NC(=O)OC2CCOC2)cc1 (stereo partly shown) [OMe, OH] | +++ (>30)
COc1ccc(S(=O)(=O)N(CC(C)C)C[C@@H](O)[C@H](Cc2ccc(OCP(=O)(Oc3ccccc3)Oc3ccccc3)cc2)NC(=O)OC2CCOC2)cc1 (stereo partly shown) [OMe, phenol] | + (>3 to ≦10)

Same assay, conditions: fold difference in EC50, mutant vs. wild type

Compound | I84V/L90M fold change
CCOP(=O)(CN1CC=C(CC(NC(=O)OC2COC3OCCC23)C(O)CN(CC(C)C)S(=O)(=O)c2ccc(OC)cc2)CC1)OCC (stereo not shown) | + (>3 to ≦10)
COc1ccc(S(=O)(=O)N(CC(C)C)CC(O)C(CC2=CCN(CCP(=O)(OCc3ccccc3)OCc3ccccc3)CC2)NC(=O)OC2COC3OCCC23)cc1 (stereo not shown) | + (>3 to ≦10)
COc1ccc(S(=O)(=O)N(CC(C)C)CC(O)C(CNc2ccc(CP(=O)(O)O)cc2)NC(=O)OC2COC3OCCC23)cc1 (stereo not shown) | + (>3 to ≦10)
CCOP(=O)(Cc1ccc(NCC(NC(=O)OC2COC3OCCC23)C(O)CN(CC(C)C)S(=O)(=O)c2ccc(OC)cc2)cc1)OCC (stereo not shown) | + (>3 to ≦10)
CCOP(=O)(Cc1ccc(N(C)CC(NC(=O)OC2COC3OCCC23)C(O)CN(CC(C)C)S(=O)(=O)c2ccc(OC)cc2)cc1)OCC (stereo not shown) | + (>3 to ≦10)
CCOP(=O)(Cc1ccc2c(c1)CCN(CC(NC(=O)OC1COC3OCCC13)C(O)CN(CC(C)C)S(=O)(=O)c1ccc(OC)cc1)C2)OCC (stereo not shown) | + (>3 to ≦10)
CCOC(=O)C(C)OP(=O)(COc1ccc2c(c1)CCN(CC(NC(=O)OC1COC3OCCC13)C(O)CN(CC(C)C)S(=O)(=O)c1ccc(OC)cc1)C2)Oc1ccccc1 (stereo not shown) | + (>3 to ≦10)
COC(=O)N[C@H](C(=O)N[C@@H](Cc1ccccc1)[C@@H](O)CN(Cc1ccc(-c2ccccn2)cc1)NC(=O)[C@@H](NC(=O)OC)C(C)(C)C)C(C)(C)C [Atazanavir, reference compound] | +++ (>30)
CCCCOC(=O)C(CC)NP(=O)(COc1ccc(CC(NC(=O)OC2COC3OCCC23)C(O)CN(CC(C)C)S(=O)(=O)c2ccc(OC)cc2)cc1)NC(CC)C(=O)OCCCC (stereo not shown) [drawing 655 R1=Aba-Bu R2=Aba-Bu] | + (>3 to ≦10)

Each compound was assayed on wild-type HIV-1 strain IIIB (assay: microbe, parasite or virus in culture). Conditions: read-out: EC50.
Assay type: cell-based

Compound | EC50
CCC(OP(=O)(COc1ccc(CC(NC(=O)OC2COC3OCCC23)C(O)CN(CC(C)C)S(=O)(=O)c2ccc(OC)cc2)cc1)Oc1ccccc1)C(=O)OC(C)(C)C [drawing 659 R1=OPh R2=(S)Hba-tBu] | < 50 nM
COc1ccc(S(=O)(=O)N(CC(C)C)C[C@@H](O)[C@H](Cc2ccc(OCP(=O)(Oc3ccccc3)O[C@@H](C)C(=O)OCCN3CCOCC3)cc2)NC(=O)O[C@H]2CO[C@H]3OCC[C@H]32)cc1 (stereo partly drawn) [drawing 659 R1=OPh R2=(S)Lac-EtMor] | > 5000 nM
COc1ccc(S(=O)(=O)N(CC(C)C)C[C@@H](O)[C@H](Cc2ccc(OCP(=O)(Oc3ccccc3)O[C@@H](C)C(=O)OCCN3CCCCC3)cc2)NC(=O)O[C@H]2CO[C@H]3OCC[C@H]32)cc1 (stereo partly drawn) [drawing 659 R1=OPh R2=(S)Lac-EtPip] | 50 to 500 nM
COc1ccc(S(=O)(=O)N(CC(C)C)C[C@@H](O)[C@H](Cc2ccc(OCP(=O)(Oc3ccccc3)O[C@@H](C)C(=O)OCCCN3CCOCC3)cc2)NC(=O)O[C@H]2CO[C@H]3OCC[C@H]32)cc1 (stereo partly drawn) [drawing 659 R1=OPh R2=(S)Lac-PrMor] | > 5000 nM
CCOC(=O)[C@H](C)OP(=O)(COc1ccc(C[C@H](NC(=O)O[C@H]2CO[C@H]3OCC[C@H]32)[C@H](O)CN(CC(C)C)S(=O)(=O)c2ccc(OC)cc2)cc1)ON1CCOCC1 (stereo partly drawn) [drawing 660 R1=OMor R2=(S)Lac-Et] | > 5000 nM
CCOC(=O)[C@H](C)OP(=O)(COc1ccc(C[C@H](NC(=O)O[C@H]2CO[C@H]3OCC[C@H]32)[C@H](O)CN(CC(C)C)S(=O)(=O)c2ccc(OC)cc2)cc1)ON(C)C (stereo partly drawn) [drawing 660 R1=ONMe2 R2=(S)Lac-Et] | 50 to 500 nM
CCOC(=O)[C@H](C)OP(=O)(COc1ccc(C[C@H](NC(=O)O[C@H]2CO[C@H]3OCC[C@H]32)[C@H](O)CN(CC(C)C)S(=O)(=O)c2ccc(OC)cc2)cc1)Oc1cccc(CN2CCOCC2)c1 (stereo partly drawn) [drawing 660 R1=OPh-m-CH2Mor R2=(S)Lac-Et] | 50 to 500 nM
CCOC(=O)[C@H](C)OP(=O)(COc1ccc(C[C@H](NC(=O)O[C@H]2CO[C@H]3OCC[C@H]32)[C@H](O)CN(CC(C)C)S(=O)(=O)c2ccc(OC)cc2)cc1)Oc1cccc(CN(C)C)c1 (stereo partly drawn) [drawing 660 R1=OPh-m-CH2NMe2 R2=(S)Lac-Et] | 500 to 5000 nM
CCOC(=O)[C@H](C)OP(=O)(COc1ccc(C[C@H](NC(=O)O[C@H]2CO[C@H]3OCC[C@H]32)[C@H](O)CN(CC(C)C)S(=O)(=O)c2ccc(OC)cc2)cc1)Oc1cccc(CN(C)CCOC)c1 (stereo partly drawn) [drawing 660 R1=OPh-m-CH2NMeC2OM R2=(S)Lac-Et] | 50 to 500 nM
CCOC(=O)[C@H](C)OP(=O)(COc1ccc(C[C@H](NC(=O)O[C@H]2CO[C@H]3OCC[C@H]32)[C@H](O)CN(CC(C)C)S(=O)(=O)c2ccc(OC)cc2)cc1)Oc1cccc(CO)c1 (stereo partly drawn) [drawing 660 R1=OPh-m-CH2OH R2=(S)Lac-Et] | 50 to 500 nM
CCOC(=O)[C@H](C)OP(=O)(COc1ccc(C[C@H](NC(=O)O[C@H]2CO[C@H]3OCC[C@H]32)[C@H](O)CN(CC(C)C)S(=O)(=O)c2ccc(OC)cc2)cc1)Oc1cccc(CN2CCCCC2)c1 (stereo partly drawn) [drawing 660 R1=OPh-m-CH2Pip R2=(S)Lac-Et] | 50 to 500 nM
CCOC(=O)C(C)OP(=O)(COc1ccc(CC(NC(=O)OC2COC3OCCC23)C(O)CN(CC(C)C)S(=O)(=O)c2ccc(OC)cc2)cc1)Oc1cccc(C(=O)O)c1 [drawing 660 R1=OPh-m-COOH R2=(S)Lac-Et] | 50 to 500 nM
CCOC(=O)C(C)OP(=O)(COc1ccc(CC(NC(=O)OC2COC3OCCC23)C(O)CN(CC(C)C)S(=O)(=O)c2ccc(OC)cc2)cc1)Oc1ccccc1OCC [drawing 660 R1=OPh-o-OEt R2=(S)Lac-Et] | < 50 nM
CCOC(=O)C(C)OP(=O)(COc1ccc(CC(NC(=O)OC2COC3OCCC23)C(O)CN(CC(C)C)S(=O)(=O)c2ccc(OC)cc2)cc1)Oc1ccccc1CC(C)C [drawing 660 R1=OPh—o-i-But R2=(S)Lac-Et] | < 50 nM
CCCCc1ccc(OP(=O)(COc2ccc(C[C@H](NC(=O)O[C@H]3CO[C@H]4OCC[C@H]43)[C@H](O)CN(CC(C)C)S(=O)(=O)c3ccc(OC)cc3)cc2)O[C@@H](C)C(=O)OCC)cc1 (stereo partly drawn) [drawing 660 R1=OPh—p-n-But R2=(S)Lac-Et] | < 50 nM
CCCCCCCCc1ccc(OP(=O)(COc2ccc(C[C@H](NC(=O)O[C@H]3CO[C@H]4OCC[C@H]43)[C@H](O)CN(CC(C)C)S(=O)(=O)c3ccc(OC)cc3)cc2)O[C@@H](C)C(=O)OCC)cc1 (stereo partly drawn) [drawing 660 R1=OPh—p-n-Oct R2=(S)Lac-Et] | 50 to 500 nM
CCOC(=O)[C@H](C)OP(=O)(COc1ccc(C[C@H](NC(=O)O[C@H]2CO[C@H]3OCC[C@H]32)[C@H](O)CN(CC(C)C)S(=O)(=O)c2ccc(OC)cc2)cc1)ON1CCCCC1 (stereo partly drawn) [drawing 660 R1=OPip R2=(S)Lac-Et] | 500 to 5000 nM
CCOC(=O)C(C)OP(=O)(COc1ccc(CC(NC(=O)OC2COC3OCCC23)C(O)CN(CC(C)C)S(=O)(=O)c2ccc(OC)cc2)cc1)Oc1ccccc1 (stereo not shown) [drawing 661 R1=OPh R2=Lac-Et] | 50 to 500 nM
CCOC(=O)C(CC)NP(=O)(CCNCc1ccc(C[C@H](NC(=O)O[C@H]2CO[C@H]3OCC[C@H]32)[C@H](O)CN(CC(C)C)S(=O)(=O)c2ccc(OC)cc2)cc1)Oc1ccccc1 (stereo partly shown) [drawing 662 R1=Ph R2=Aba-Et] | 500 to 5000 nM
CCCCOC(=O)C(C)OP(=O)(COc1ccc(C[C@H](NC(=O)O[C@H]2CO[C@H]3OCC[C@H]32)[C@H](O)CN(CC(C)C)S(=O)(=O)c2cccc(N)c2)cc1)Oc1ccccc1 (stereo partly shown) [drawing 764] | 50 to 500 nM
